# Test system: hyaluronic acid
# Assay type: cell-based
substance,measurement,value
4-Methylumbelliferone [4-MU],"Hyaluronic acid with 4-MU, HIS-SARS-CoV-2-3 overexpressed",30.02 ± 2.00 ng/mL
same,"Hyaluronic acid with 4-MU, HIS-SARS-CoV-2-4 overexpressed",19.76 ± 11.3 ng/mL

# From patent US12251434B2 (priority 2021, dated 2025)
